The values that follow come from US20230365571A1, “COMPOUNDS AND COMPOSITIONS AS Sppl2a INHIBITORS” (Novartis AG, priority 2020, published 2023).

Common to all, as to type: cell-based
Assay [1] addresses T1, human SPPL2a (Homo sapiens, UniProt Q8TCT8).
T1 sequence (Q8TCT8 26-520): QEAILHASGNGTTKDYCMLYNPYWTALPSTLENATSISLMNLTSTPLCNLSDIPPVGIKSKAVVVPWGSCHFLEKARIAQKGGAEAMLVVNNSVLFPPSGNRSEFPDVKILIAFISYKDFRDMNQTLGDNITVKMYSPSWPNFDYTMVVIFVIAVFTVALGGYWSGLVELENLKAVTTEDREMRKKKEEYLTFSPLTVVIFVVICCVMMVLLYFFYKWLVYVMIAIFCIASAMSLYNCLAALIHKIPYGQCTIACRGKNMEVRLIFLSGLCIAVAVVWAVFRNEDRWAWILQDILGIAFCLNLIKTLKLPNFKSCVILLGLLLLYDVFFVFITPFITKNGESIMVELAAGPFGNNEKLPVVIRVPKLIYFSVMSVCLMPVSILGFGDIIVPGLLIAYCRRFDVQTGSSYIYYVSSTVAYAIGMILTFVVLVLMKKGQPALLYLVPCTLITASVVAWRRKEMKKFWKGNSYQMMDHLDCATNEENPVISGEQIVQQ
Put plainly: Sppl2a TL (translocation) imaging assay in U-2 OS cells. Also on record: expressed in transfected cells. The settings on record: U-2 OS cells expressing human SPPL2a and EGFP-TNFα(aa1-76) NTF substrate; 24 h. In short, it runs like this: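 U-2 OS cells stably expressing human SPPL2a plus doxycycline-induced EGFP-TNFα(aa1-76) NTF, treated 24 h at 37 °C with inhibitor (100 μM–1 nM, 11 points, 0.9% DMSO, 5 μg/mL doxycycline). Imaging of nuclear-minus-cytoplasmic EGFP intensity; % inhibition versus 0.5 μM LY-411,575 and DMSO, IC50 by nonlinear regression; CC50 from cell count.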

The next assay concerns the target T2, Sppl2a CD74 (Mus musculus, UniProt Q9JJF9).
T2 construct: Mouse whole blood Balb/c mice (sodium citrate) was ordered by Bioreclamation LLC; tissue Bioreclamation LLC
T2 sequence (Q9JJF9 26-523): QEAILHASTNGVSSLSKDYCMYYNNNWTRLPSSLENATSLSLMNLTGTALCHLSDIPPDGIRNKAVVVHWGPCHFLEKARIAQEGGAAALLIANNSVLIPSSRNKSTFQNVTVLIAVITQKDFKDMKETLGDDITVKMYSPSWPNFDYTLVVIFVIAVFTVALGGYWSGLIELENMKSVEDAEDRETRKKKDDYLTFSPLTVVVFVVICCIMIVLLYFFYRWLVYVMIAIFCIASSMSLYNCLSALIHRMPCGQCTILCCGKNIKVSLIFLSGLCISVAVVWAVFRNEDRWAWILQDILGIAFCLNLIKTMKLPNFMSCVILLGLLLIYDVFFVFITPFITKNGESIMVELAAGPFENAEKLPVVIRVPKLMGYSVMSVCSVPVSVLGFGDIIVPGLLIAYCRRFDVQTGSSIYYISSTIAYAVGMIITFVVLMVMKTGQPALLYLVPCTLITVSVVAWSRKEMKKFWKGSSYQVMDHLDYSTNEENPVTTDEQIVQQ
Put plainly: CD74/p8 mouse whole blood assay, flow cytometry format. The settings on record: Balb/c mouse whole blood, 5 h, CD74 signal on gated live B cells. On the procedure: CD74/p8 Mouse Whole Blood Assay: Flow Cytometry Format
Mouse whole blood Balb/c mice (sodium citrate) was ordered by Bioreclamation LLC; USA. The blood was used the next day upon receipt (stored at 4° C.). 100 μL blood were transferred in 96 well format plate, where compounds, an 11 point dilutions down from 30 μM, to be tested were previously deposited. The plate was incubated for 5 h in the incubator at 37° C., 5% CO2 under continuous motion. After the incubation the blood was diluted with RBC Lysis Buffer (Amined; Cat. Nr 3-13F00-H or BD; Cat. Nr 555899). The solution was mixed by pipetting and incubated 10 min in the 37° C. incubator. The white blood cells were sedimented for 3 min at 2000 rpm. After removing the supernatant the cell pellet was resuspended and washed twice in RCB Buffer and kept≈ 5 min at room temperature, followed by a centrifugation for 2 min at 2000 rpm. The cell pellet was then resuspend in D-PBS and centrifuged twice. Finally, the cells were taken up in of D-PBS/0.5% inactivated fetal bovine serum/2 mM EDTA. The cell suspension was treated with Live/Dead fixable stain (Life Technologies, >470 nm version), B cells were identified by surface staining with an anti-B220 antibody coupled to APC fluorofor. After staining, the cells were extensively washed with PBS. The cells were permeabilized and fixed in FACS lysing buffer; (BD; #349202, dil 1:10 in water) and labelled with an anti CD74, FITC labelled antibody, washed once more with diluted FACS lysing buffer and spin down. The cell pellet was washed with D-PBS/0.5% inactivated fetal bovine serum/2 mM EDTA and PBS prior to the analysis in a flow cytometer. The compound concentrations were plotted against the intensity (medium fluorescence intensity) of the CD74 signal on the gated life B cell and IC50 were determined by fitting data for a 11 concentrations dose response.
A general note: Flow cytometry measures light scatter and fluorescence of single cells or particles in a stream.

For assay [2], the target named is T1, human SPPL2a. The assay can be described thus: Sppl2a RGA (reporter gene assay) in HEK293 cells. Also on record: expressed in transfected cells; host or cells: HEK293 (transient). The settings on record: NT-TNF-VP16-Gal4 substrate, Gal4-luciferase reporter, 24 h. In short, it runs like this:
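Cleavage of a membrane-bound TNF N-terminal–VP16-Gal4 substrate drives Gal4-luciferase expression in transiently transfected HEK293 cells also expressing human SPPL2a. Compounds incubated 24 h, 37 °C, 5% CO2; luminescence read, normalized and plotted against concentration for IC50.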
On the technique in general: A reporter such as luciferase makes a cellular process visible.

A word on the IC50: it is the point on the concentration scale where inhibition reaches its midpoint. In the case of `Cc1cc(-c2cc(NC(=O)C[C@@H](C)C(=O)N[C@@H]3C(=O)N4CCCN4Cc4ccccc43)n(C)n2)no1` [Example 80, (R)-2-Methyl-N^4-(1-methyl-3-(5-methylisoxazol-3-yl)-1H-pyrazol-5-yl)-N^1-((S)-11-oxo-2,3,10,11-tetrahydro-1H,5H-benzo[d]pyrazolo [1,2-a][1,2]diazepin-10-yl)succinamide], the IC50 against human SPPL2a [1] stood at 7 nM; against Sppl2a CD74 it was 910 nM; against human SPPL2a [2], 8 nM.

As for `Cc1nc(C(=O)NC(C)C)sc1C(=O)NC[C@H](C(=O)N[C@@H]1C(=O)N2CCCN2Cc2ccccc21)C1CC1` [Example 27, N^5-((R)-2-Cyclopropyl-3-oxo-3-(((S)-11-oxo-2,3,10,11-tetrahydro-1H,5H-benzo[d]pyrazolo [1,2-a][1,2]diazepin-10-yl)amino)propyl)-N^2-isopropyl-4-methylthiazole-2,5-dicarboxamide], the values for the IC50 against human SPPL2a [1], against Sppl2a CD74 and against human SPPL2a [2] were 26 nM, 947 nM and 5 nM, respectively.

`CCNC(=O)c1nc(C)c(C(=O)NC[C@@H](C)C(=O)N[C@@H]2C(=O)N3CCCN3Cc3ccccc32)s1` [Example 16, N^2-Ethyl-4-methyl-N^5-((R)-2-methyl-3-oxo-3-(((S)-11-oxo-2,3,10,11-tetrahydro-1H,5H-benzo[d]pyrazolo [1,2-a][1,2]diazepin-10-yl)amino)propyl) thiazole-2,5-dicarboxamide]: the IC50 worked out at 11 nM on human SPPL2a [1], 659 nM against Sppl2a CD74 and 8 nM on human SPPL2a [2].

`CC(C)C(=O)Nc1cc(NC(=O)C[C@@H](C)C(=O)N[C@@H]2C(=O)N3CCCN3Cc3ccccc32)n(C)n1` [Example 62, (R)—N^4-(3-Isobutyramido-1-methyl-1H-pyrazol-5-yl)-2-methyl-N^1—((S)-11-oxo-2,3,10,11-tetrahydro-1H,5H-benzo[d]pyrazolo[1,2-a][1,2]diazepin-10-yl)succinamide]: the figures for the IC50 on human SPPL2a [1], at Sppl2a CD74 and on human SPPL2a [2] were 0.3 nM, 317 nM and 57 nM, respectively.

Turning to `CCOc1nc(C)c(C(=O)NC[C@@H](CC)C(=O)N[C@@H]2C(=O)N3CCCN3Cc3ccccc32)s1` [Example 53, 2-Ethoxy-4-methyl-N-((R)-2-(((S)-11-oxo-2,3,10,11-tetrahydro-1H,5H-benzo[d]pyrazolo [1,2-a][1,2]diazepin-10-yl)carbamoyl)butyl) thiazole-5-carboxamide], the IC50 at human SPPL2a [1] is 125 nM; on Sppl2a CD74, 279 nM; against human SPPL2a [2], 22 nM.

Consider `CCNC(=O)c1nc(C)c(C(=O)NC[C@@H](CC)C(=O)N[C@@H]2C(=O)N3CCCN3Cc3ccccc32)s1` [Example 10, N^2-Ethyl-4-methyl-N^5-((R)-2-(((S)-11-oxo-2,3,10,11-tetrahydro-1H,5H-benzo[d]pyrazolo [1,2-a][1,2]diazepin-10-yl)carbamoyl)butyl) thiazole-2,5-dicarboxamide], for which the IC50 is 4 nM against human SPPL2a [1], 289 nM against Sppl2a CD74 and 5 nM against human SPPL2a [2].

As for `C[C@H](CC(=O)Nc1cc(NC(=O)c2ccccc2F)nn1C)C(=O)N[C@@H]1C(=O)N2CCCN2Cc2ccccc21` [Example 69, (R)-N^4-(3-(2-Fluorobenzamido)-1-methyl-1H-pyrazol-5-yl)-2-methyl-N^1-((S)-11-oxo-2,3,10,11-tetrahydro-1H,5H-benzo[d]pyrazolo [1,2-a][1,2]diazepin-10-yl)succinamide], the IC50 is 3 nM at human SPPL2a [1], 1240 nM on Sppl2a CD74 and 9 nM on human SPPL2a [2].

For `CC(C)NC(=O)c1nc(Cl)c(C(=O)NC[C@@H](C)C(=O)N[C@@H]2C(=O)N3CCCN3Cc3ccccc32)s1` [Example 22, 4-Chloro-N^2-isopropyl-N^5-((R)-2-methyl-3-oxo-3-(((S)-11-oxo-2,3,10,11-tetrahydro-1H,5H-benzo[d]pyrazolo [1,2-a][1,2]diazepin-10-yl)amino)propyl) thiazole-2,5-dicarboxamide], the IC50 on human SPPL2a [1] is 14 nM; on Sppl2a CD74, 3000 nM; on human SPPL2a [2], 12 nM.

For `COCCn1cc(-c2nc(Cl)c(NC(=O)C[C@@H](C)C(=O)N[C@@H]3C(=O)N4CCCN4Cc4ccccc43)s2)cn1` [Example 99, (R)-N^4-(4-Chloro-2-(1-(2-methoxyethyl)-1H-pyrazol-4-yl)thiazol-5-yl)-2-methyl-N^1-((S)-11-oxo-2,3,10,11-tetrahydro-1H,5H-benzo[d]pyrazolo [1,2-a][1,2]diazepin-10-yl)succinamide], the IC50 against human SPPL2a [1] was 14 nM; against Sppl2a CD74, 892 nM; against human SPPL2a [2], 50 nM.

In the case of `CC[C@H](CNC(=O)c1sc(C2=CCOCC2)nc1Cl)C(=O)N[C@@H]1C(=O)N2CCCN2Cc2ccccc21` [Example 46, 4-Chloro-2-(3,6-dihydro-2H-pyran-4-yl)-N-((R)-2-(((S)-11-oxo-2,3,10,11-tetrahydro-1H,5H-benzo[d]pyrazolo [1,2-a][1,2]diazepin-10-yl)carbamoyl)butyl) thiazole-5-carboxamide], the IC50 at human SPPL2a [1] was determined as 79 nM; against Sppl2a CD74 it was 2680 nM; against human SPPL2a [2] it was 54 nM.

As for `C[C@H](CC(=O)Nc1cc(-c2ccccn2)nn1C)C(=O)N[C@@H]1C(=O)N2CCCN2Cc2ccccc21` [Example 94, (R)-2-Methyl-N^4-(1-methyl-3-(pyridin-2-yl)-1H-pyrazol-5-yl)-N^1-((S)-11-oxo-2,3,10,11-tetrahydro-1H,5H-benzo[d]pyrazolo [1,2-a][1,2]diazepin-10-yl)succinamide], the IC50 at human SPPL2a [1] came to 12 nM; on Sppl2a CD74, 2540 nM; against human SPPL2a [2] it was 34 nM.

On to `CCNC(=O)c1nc(C)c(C(=O)NC[C@H](C(=O)N[C@@H]2C(=O)N3CCCN3Cc3ccccc32)C2CC2)s1` [Example 12, N^5-((R)-2-Cyclopropyl-3-oxo-3-(((S)-11-oxo-2,3,10,11-tetrahydro-1H,5H-benzo[d]pyrazolo [1,2-a][1,2]diazepin-10-yl)amino)propyl)-N^2-ethyl-4-methylthiazole-2,5-dicarboxamide], for which the IC50 worked out at 5 nM on human SPPL2a [1], 280 nM against Sppl2a CD74 and 4 nM against human SPPL2a [2].

For `CC[C@H](CNC(=O)c1onc(C)c1C)C(=O)N[C@@H]1C(=O)N2CCCN2Cc2ccccc21` [Example 25, 3,4-Dimethyl-N-((R)-2-(((S)-11-oxo-2,3,10,11-tetrahydro-1H,5H-benzo[d]pyrazolo [1,2-a][1,2]diazepin-10-yl)carbamoyl)butyl) isoxazole-5-carboxamide], the IC50 at human SPPL2a [1] is 24 nM; on Sppl2a CD74 it was 420 nM; against human SPPL2a [2] it was 9 nM.
